Data taken from US11020399B2, “Intermediates useful in the synthesis of compounds as modulators of protein kinases” (Rhizen Pharmaceuticals SA, priority 2011, dated 2021).
Each block holds one molecule with its values, some of them ahead of it.

Tests used:
Type in all cases: biochemical
[1] = target: PI3kγ (Homo sapiens, UniProt P48736); experiment: Fluorescent (HTRF) determination of PI3 kinase enzyme activity, PI3Kγ; conditions: for inhibition at 0.1 µM / % inhibition (PI3kγ) 100 nM: 100 nM (Examples 60-137); for inhibition at 0.3 µM: 300 nM (Examples 1-59)
Text: (§1) Assay 1: Fluorescent Determination of PI3Kinase Kinase Enzyme Activity
(§2) Phosphoinositide 3 kinases (PI3K) belong to a class of lipid kinases that play a critical role in the regulation of several key cellular processes. The PI3K are capable of phosphorylating the 3-hydroxy position of phosphoinositols thereby generating second messengers involved in downstream signalling events. The homogenous time resolved fluorescence (HTRF) assay allows detection of 3,4,5-triphosphate (PIP3) formed as a result of phosphorylation of phosphotidylinositol 4,5-biphosphate (PIP2) by PI3K isoforms such as α, β, γ or δ. PI3K isoform activity for a, p, y or 8 was determined using a PI3K human HTRF™ Assay Kit (Millipore, Billerica, Mass.) with modifications. All incubations were carried out at room temperature. Briefly, 0.5 μl of 40× inhibitor (in 100% DMSO) or 100% DMSO were added to each well of a 384-well black plate (Greiner Bio-One, Monroe, N.C.) containing 14.5 μl IX reaction buffer /PIP2 (10 mM MgCl2, 5 mM DTT, 1.38 μM PIP2) mix with or without enzyme and incubated for 10 min. After the initial incubation, 5 μl/well of 400 μM ATP was added and incubated for an additional 30 minutes. Reaction was terminated by adding 5 μl/well stop solution (Millipore, Billerica, Mass.). Five microliters of detection mix (Millipore, Billerica, Mass.) were then added to each well and was incubated for 6-18 h in the dark. HRTF ratio was measured on a microplate reader (BMG Labtech., Germany) at an excitation wavelength of 337 nm and emission wavelengths of 665 and 620 nm with an integration time of 400 μsec.
(§3) Data were analyzed using Graphpad Prism (Graphpad software; San Diego Calif.) for IC50 determination. Examples 1-59 were tested at 1 uM for Pi3kα & Pi3k β and at 0.3 uM for γ and δ. Examples 60-137 were tested at 1 uM for Pi3kα & Pi3k β and at 0.1 uM for γ and δ. Percent inhibition was calculated based on the values for the blank and enzyme controls. The results are as provided in Table 2 (wherein D=0 to 25%; C=>25 to 50%; B=>50 to 75%; A=>75 to 100%; +++++=≤50 nM; ++++=>50 to ≤100 nM; +++=>100 to ≤300 nM; ++=>300 to ≤500 nM; +=>500 nM)

[2] = target: PI3kδ (Homo sapiens, UniProt O00329); experiment: Fluorescent (HTRF) determination of PI3 kinase enzyme activity, PI3Kδ; conditions: for inhibition at 0.1 µM / % inhibition (PI3kδ) 100 nM: 100 nM (Examples 60-137); for % inhibition (PI3kδ) 100 nM: 0.1 µM; for inhibition at 0.3 µM: 300 nM (Examples 1-59)
Text: as §1, §2, §3

[3] = target: PI3kα (Homo sapiens, UniProt P42336); experiment: Fluorescent (HTRF) determination of PI3 kinase enzyme activity, PI3Kα
Text: as §1, §2, §3

[4] = target: PI3kβ (Homo sapiens, UniProt P42338); experiment: Fluorescent (HTRF) determination of PI3 kinase enzyme activity, PI3Kβ
Text: as §1, §2, §3

PI3kβ, sequence (P42338 whole entry): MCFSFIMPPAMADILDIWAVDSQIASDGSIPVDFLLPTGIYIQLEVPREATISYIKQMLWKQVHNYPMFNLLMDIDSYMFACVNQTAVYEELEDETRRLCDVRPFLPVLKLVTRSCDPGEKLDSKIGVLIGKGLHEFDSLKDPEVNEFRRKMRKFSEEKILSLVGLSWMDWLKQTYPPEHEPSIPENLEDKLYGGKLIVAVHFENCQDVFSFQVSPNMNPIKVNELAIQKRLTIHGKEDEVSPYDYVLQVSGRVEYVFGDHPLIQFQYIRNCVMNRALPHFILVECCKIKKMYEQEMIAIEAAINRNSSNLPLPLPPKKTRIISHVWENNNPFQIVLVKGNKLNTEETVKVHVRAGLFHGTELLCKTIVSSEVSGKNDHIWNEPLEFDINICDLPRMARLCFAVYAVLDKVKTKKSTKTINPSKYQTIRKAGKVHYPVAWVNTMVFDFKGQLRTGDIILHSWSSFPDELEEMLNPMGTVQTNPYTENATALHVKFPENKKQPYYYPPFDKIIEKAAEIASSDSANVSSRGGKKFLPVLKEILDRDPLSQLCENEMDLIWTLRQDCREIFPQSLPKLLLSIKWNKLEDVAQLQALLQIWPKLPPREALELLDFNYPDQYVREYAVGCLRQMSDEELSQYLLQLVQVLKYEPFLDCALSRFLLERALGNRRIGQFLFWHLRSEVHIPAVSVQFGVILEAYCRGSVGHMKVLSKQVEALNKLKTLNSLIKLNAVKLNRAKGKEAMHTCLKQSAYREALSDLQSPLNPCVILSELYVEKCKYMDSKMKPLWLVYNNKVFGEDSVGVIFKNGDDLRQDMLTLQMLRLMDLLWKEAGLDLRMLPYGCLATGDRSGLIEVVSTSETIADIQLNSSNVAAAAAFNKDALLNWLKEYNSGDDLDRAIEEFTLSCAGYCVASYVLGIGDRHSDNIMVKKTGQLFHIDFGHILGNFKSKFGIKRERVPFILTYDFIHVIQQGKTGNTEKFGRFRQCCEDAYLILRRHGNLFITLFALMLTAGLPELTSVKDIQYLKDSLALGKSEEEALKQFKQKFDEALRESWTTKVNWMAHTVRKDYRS
PI3kβ, sequence (P27986 whole entry partner): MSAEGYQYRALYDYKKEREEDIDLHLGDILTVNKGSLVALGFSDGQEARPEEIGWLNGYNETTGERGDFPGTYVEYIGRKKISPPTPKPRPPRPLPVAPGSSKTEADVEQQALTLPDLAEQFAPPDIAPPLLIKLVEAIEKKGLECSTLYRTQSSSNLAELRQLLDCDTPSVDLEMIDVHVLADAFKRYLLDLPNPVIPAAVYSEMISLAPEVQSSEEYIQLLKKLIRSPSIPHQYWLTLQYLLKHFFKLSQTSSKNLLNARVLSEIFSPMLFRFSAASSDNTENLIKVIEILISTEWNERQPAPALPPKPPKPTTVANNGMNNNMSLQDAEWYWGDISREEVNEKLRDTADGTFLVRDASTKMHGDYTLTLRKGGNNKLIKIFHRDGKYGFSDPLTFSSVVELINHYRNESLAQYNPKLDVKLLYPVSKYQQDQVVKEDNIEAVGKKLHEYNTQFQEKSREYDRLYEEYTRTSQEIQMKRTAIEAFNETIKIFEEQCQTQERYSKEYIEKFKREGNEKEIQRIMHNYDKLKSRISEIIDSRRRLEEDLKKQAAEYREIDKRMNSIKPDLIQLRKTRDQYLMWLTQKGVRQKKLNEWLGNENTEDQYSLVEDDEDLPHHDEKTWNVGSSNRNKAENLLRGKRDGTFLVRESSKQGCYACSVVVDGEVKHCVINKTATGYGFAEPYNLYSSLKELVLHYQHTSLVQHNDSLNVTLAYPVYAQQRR
PI3kα, sequence (P42336 whole entry): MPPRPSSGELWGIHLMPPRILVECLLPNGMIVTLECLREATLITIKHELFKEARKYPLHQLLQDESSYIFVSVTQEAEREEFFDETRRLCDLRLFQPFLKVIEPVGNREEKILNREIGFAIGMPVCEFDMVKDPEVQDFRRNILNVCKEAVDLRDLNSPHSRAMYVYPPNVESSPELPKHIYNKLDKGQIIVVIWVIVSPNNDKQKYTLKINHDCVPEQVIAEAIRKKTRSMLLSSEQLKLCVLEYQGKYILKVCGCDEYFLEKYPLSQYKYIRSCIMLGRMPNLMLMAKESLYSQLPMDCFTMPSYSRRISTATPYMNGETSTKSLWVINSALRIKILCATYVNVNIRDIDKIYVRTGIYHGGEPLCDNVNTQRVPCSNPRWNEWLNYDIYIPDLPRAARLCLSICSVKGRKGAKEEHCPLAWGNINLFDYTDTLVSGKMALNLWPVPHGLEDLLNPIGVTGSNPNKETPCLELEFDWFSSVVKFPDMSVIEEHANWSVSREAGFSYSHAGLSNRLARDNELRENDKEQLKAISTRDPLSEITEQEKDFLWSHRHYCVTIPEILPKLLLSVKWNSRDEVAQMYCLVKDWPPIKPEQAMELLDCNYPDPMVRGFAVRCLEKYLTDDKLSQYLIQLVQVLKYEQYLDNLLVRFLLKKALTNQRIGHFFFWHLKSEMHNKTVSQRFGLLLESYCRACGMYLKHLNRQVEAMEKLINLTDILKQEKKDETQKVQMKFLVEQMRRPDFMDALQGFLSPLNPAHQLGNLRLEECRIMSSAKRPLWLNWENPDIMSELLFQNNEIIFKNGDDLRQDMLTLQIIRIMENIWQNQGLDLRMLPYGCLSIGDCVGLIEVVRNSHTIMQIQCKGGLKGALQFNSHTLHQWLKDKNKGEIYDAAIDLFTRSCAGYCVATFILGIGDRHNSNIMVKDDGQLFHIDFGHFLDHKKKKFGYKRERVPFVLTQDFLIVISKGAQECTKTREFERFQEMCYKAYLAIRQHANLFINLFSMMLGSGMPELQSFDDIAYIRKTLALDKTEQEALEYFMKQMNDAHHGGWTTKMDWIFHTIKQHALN
PI3kα, sequence (P27986 whole entry partner): as the sequence (P27986 whole entry partner) above
PI3kγ, sequence (P48736 whole entry): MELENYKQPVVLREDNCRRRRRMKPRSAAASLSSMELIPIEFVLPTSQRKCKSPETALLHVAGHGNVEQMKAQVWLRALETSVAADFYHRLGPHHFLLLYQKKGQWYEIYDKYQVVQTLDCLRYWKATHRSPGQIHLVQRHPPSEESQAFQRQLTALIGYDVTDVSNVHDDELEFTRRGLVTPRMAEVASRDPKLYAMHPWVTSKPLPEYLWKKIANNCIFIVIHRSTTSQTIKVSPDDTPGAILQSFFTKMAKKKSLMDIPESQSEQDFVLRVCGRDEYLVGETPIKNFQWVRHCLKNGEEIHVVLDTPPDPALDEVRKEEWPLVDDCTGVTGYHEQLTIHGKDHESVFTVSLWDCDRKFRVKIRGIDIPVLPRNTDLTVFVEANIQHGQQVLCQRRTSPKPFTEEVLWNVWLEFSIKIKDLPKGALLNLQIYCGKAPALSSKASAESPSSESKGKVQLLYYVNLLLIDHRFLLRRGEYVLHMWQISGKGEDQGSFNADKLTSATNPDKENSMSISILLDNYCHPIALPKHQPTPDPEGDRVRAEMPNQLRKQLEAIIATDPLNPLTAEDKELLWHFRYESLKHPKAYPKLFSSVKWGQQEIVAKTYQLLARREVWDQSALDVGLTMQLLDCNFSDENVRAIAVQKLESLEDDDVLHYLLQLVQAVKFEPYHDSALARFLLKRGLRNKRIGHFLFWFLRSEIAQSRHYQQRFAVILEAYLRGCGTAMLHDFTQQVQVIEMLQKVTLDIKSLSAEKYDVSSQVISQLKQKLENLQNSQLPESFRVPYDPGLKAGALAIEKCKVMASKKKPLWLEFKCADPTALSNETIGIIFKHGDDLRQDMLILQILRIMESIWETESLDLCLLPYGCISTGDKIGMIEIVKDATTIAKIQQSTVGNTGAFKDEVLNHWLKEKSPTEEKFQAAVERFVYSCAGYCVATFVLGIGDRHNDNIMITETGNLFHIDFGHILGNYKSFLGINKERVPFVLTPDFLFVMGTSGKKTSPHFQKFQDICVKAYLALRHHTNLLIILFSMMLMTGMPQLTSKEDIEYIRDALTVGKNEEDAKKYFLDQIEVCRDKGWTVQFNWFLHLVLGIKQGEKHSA
PI3kδ, sequence (O00329 whole entry): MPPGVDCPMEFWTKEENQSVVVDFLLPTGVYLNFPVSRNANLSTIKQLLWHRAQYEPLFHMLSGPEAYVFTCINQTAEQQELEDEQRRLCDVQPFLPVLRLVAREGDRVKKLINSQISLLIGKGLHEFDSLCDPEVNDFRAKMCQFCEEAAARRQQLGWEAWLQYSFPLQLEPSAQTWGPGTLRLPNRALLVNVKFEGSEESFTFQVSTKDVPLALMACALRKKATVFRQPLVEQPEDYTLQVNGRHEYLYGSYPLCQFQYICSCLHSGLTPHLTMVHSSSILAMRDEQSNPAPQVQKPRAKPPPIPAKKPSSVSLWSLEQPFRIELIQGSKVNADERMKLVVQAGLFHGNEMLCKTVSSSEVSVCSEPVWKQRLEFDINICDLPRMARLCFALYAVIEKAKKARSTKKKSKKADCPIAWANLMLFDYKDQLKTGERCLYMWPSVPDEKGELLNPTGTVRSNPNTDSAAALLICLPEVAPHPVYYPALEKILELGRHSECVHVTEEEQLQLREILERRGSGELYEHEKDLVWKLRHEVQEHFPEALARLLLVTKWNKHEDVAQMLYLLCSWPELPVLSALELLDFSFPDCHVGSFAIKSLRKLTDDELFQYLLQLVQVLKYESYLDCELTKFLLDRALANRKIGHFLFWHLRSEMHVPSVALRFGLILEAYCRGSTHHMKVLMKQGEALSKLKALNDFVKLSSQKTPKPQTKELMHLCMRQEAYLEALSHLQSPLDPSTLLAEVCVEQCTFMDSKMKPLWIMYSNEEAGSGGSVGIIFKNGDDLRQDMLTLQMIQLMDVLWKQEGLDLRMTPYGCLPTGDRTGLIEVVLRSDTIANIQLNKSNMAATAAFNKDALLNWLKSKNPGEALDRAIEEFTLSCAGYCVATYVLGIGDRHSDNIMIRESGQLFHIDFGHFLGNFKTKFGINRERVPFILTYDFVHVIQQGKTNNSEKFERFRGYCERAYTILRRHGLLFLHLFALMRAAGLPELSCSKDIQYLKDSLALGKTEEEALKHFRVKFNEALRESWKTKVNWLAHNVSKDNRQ
PI3kδ, sequence (P27986 whole entry partner): as the sequence (P27986 whole entry partner) above

- inhibition at 0.1 µM [1]: 0 to 25%
- inhibition at 0.1 µM [2]: 0 to 25%
Compound: CC(c1oc2cccc(F)c2c(=O)c1-c1ccc(F)cc1)n1nc(-c2ccc(OC(F)F)c(F)c2)c2c(N)ncnc21 (racemic) [Example 96, (S)/(R)-2-(1-(4-amino-3-(4-(difluoromethoxy)-3-fluorophenyl)-1H-pyrazolo[3,4-d]pyrimidin-1-yl)ethyl)-5-fluoro-3-(4-fluorophenyl)-4H-chromen-4-one]

- inhibition at 0.1 µM [1]: 0 to 25%
- inhibition at 0.1 µM [2]: 25 to 50%
Compound: CC(C)Oc1ccc(-c2nn(C(C)c3oc4cccc(F)c4c(=O)c3-c3ccc(F)cc3)c3ncnc(N)c23)cc1F (single isomer, unassigned) [Example 95]

- inhibition at 0.1 µM [1]: 25 to 50%
- inhibition at 0.1 µM [2]: 0 to 25%
Compound: CC(c1oc2cccc(F)c2c(=O)c1-c1ccccc1)n1nc(-c2ccc(OC(F)F)c(F)c2)c2c(N)ncnc21 (single isomer, unassigned) [Example 103]

- inhibition at 0.1 µM [1]: 25 to 50%
- % inhibition (PI3kδ) 100 nM [2]: D (D=0 to 25%)
Compound: CNc1ncnc2c1c(-c1ccc(OC(C)C)c(F)c1)nn2C(C)c1oc2cccc(F)c2c(=O)c1-c1cccc(F)c1 (single isomer, unassigned; (+)) [Example 104, (+)-5-fluoro-2-(1-(3-(3-fluoro-4-isopropoxyphenyl)-4-(methylamino)-1H-pyrazolo[3,4-d]pyrimidin-1-yl)ethyl)-3-(3-fluorophenyl)-4H-chromen-4-one]

- % inhibition (PI3kα) 1 uM ([3]; 1 uM): D (D=0 to 25%)
- % inhibition (PI3kγ) 100 nM ([1]; 0.1 µM): B (B=>50 to 75%)
- % inhibition (PI3kδ) 100 nM [2]: B (B=>50 to 75%)
Compound: Cc1cc(-c2nn(C(C)c3oc4cccc(F)c4c(=O)c3-c3cccc(F)c3)c3ncnc(N)c23)ccc1OC(C)C (single isomer, unassigned; (+)) [Example 114, (+) 2-(1-(4-amino-3-(4-isopropoxy-3-methylphenyl)-1H-pyrazolo[3,4-d]pyrimidin-1-yl)ethyl)-5-fluoro-3-(3-fluorophenyl)-4H-chromen-4-one]

- % inhibition (PI3kγ) 100 nM [1]: C (C=>25 to 50%)
- % inhibition (PI3kδ) 100 nM [2]: D (D=0 to 25%)
Compound: CNc1ncnc2c1c(-c1ccc(OC(C)C)c(F)c1)nn2C(C)c1oc2cccc(F)c2c(=O)c1-c1cccc(F)c1 (single isomer, unassigned; (-)) [Example 105, (−)-5-fluoro-2-(1-(3-(3-fluoro-4-isopropoxyphenyl)-4-(methylamino)-1H-pyrazolo[3,4-d]pyrimidin-1-yl)ethyl)-3-(3-fluorophenyl)-4H-chromen-4-one]

- inhibition at 1 µM ([3]; 1 uM): 25 to 50%
- inhibition at 1 µM [4]: 25 to 50%
- inhibition at 0.3 µM [2]: 50 to 75%
Compound: COc1cccc2oc(Cn3cnc4c(N)ncnc43)c(-c3cccc(F)c3)c(=O)c12 [Example 1]

- inhibition at 1 µM ([3]; 1 uM): 0 to 25%
- inhibition at 1 µM [4]: 0 to 25%
- inhibition at 0.3 µM [2]: 50 to 75%
Compound: COc1cccc2oc(Cn3nc(-c4ccc(OC(C)C)c(F)c4)c4c(N)ncnc43)c(-c3cccc(F)c3)c(=O)c12 [Example 2, 2-((4-Amino-3-(3-fluoro-4-isopropoxyphenyl)-1H-pyrazolo[3,4-d]pyrimidin-1-yl)methyl)-3-(3-fluorophenyl)-5-methoxy-4H-chromen-4-one]

- inhibition at 1 µM ([3]; 1 uM): 25 to 50%
- IC50 ([3]; numeric values): > 10000 nM
- IC50 [4]: 300 to 500 nM
- inhibition at 1 µM [4]: 0 to 25%
- inhibition at 0.3 µM [2]: 50 to 75%
Compound: Nc1ncnc2c1c(-c1cc(O)cc(F)c1)nn2Cc1oc2cccc(F)c2c(=O)c1-c1cccc(F)c1 [Example 5, 2-((4-amino-3-(3-fluoro-5-hydroxyphenyl)-1H-pyrazolo[3,4-d]pyrimidin-1-yl)methyl)-5-fluoro-3-(3-fluorophenyl)-4H-chromen-4-one]

- inhibition at 0.3 µM [1]: 0 to 25%
- inhibition at 0.3 µM [2]: 0 to 25%
Compound: CC(Nc1ncnc2[nH]cnc12)c1oc2cccc(F)c2c(=O)c1-c1cccc(F)c1 (stereo not drawn) [Example 15, 2-(1-(9H-purin-6-ylamino)ethyl)-5-fluoro-3-(3-fluorophenyl)-4H-chromen-4-one]

- inhibition at 0.3 µM [1]: 0 to 25%
- inhibition at 0.3 µM [2]: 25 to 50%
Compound: CC(c1oc2cccc(F)c2c(=O)c1-c1cccc(F)c1)n1nc(-c2ccc(OC3CCNCC3)c(F)c2)c2c(N)ncnc21 (stereo not drawn) [Example 21, 2-(1-(4-amino-3-(3-fluoro-4-(piperidin-4-yloxy)phenyl)-1H-pyrazolo[3,4-d]pyrimidin-1-yl)ethyl)-5-fluoro-3-(3-fluorophenyl)-4H-chromen-4-one]

- inhibition at 1 µM ([3]; 1 uM): 0 to 25%
- inhibition at 1 µM [4]: 50 to 75%
- inhibition at 0.3 µM [1]: 25 to 50%
Compound: CC(c1oc2cccc(F)c2c(=O)c1-c1cccc(F)c1)n1nc(-c2ccc(N(C)C)c(F)c2)c2c(N)ncnc21 (stereo not drawn) [Example 24, 2-(1-(4-amino-3-(4-(dimethylamino)-3-fluorophenyl)-1H-pyrazolo[3,4-d]pyrimidin-1-yl)ethyl)-5-fluoro-3-(3-fluorophenyl)-4H-chromen-4-one]

- inhibition at 0.3 µM [1]: 25 to 50%
- inhibition at 0.3 µM [2]: 0 to 25%
Compound: CC(C)c1nn(C(C)c2oc3cccc(F)c3c(=O)c2-c2cccc(F)c2)c2ncnc(N)c12 (stereo not drawn) [Example 35, 2-(1-(4-amino-3-isopropyl-1H-pyrazolo[3,4-d]pyrimidin-1-yl)ethyl)-5-fluoro-3-(3-fluorophenyl)-4H-chromen-4-one]

- inhibition at 0.1 µM [1]: 0 to 25%
- inhibition at 0.1 µM [2]: 0 to 25%
Compound: CC(c1oc2cccc(F)c2c(=O)c1-c1ccccc1)n1nc(-c2ccc(N3CCOCC3)c(F)c2)c2c(N)ncnc21 (stereo not drawn) [Example 92, 2-(1-(4-amino-3-(3-fluoro-4-morpholinophenyl)-1H-pyrazolo[3,4-d]pyrimidin-1-yl)ethyl)-5-fluoro-3-phenyl-4H-chromen-4-one]

- inhibition at 0.1 µM [1]: 0 to 25%
- inhibition at 0.1 µM [2]: 25 to 50%
Compound: CC(c1oc2cccc(F)c2c(=O)c1-c1ccc(F)cc1)n1nc(-c2ccc(N3CCOCC3)c(F)c2)c2c(N)ncnc21 (stereo not drawn) [Example 93, 2-(1-(4-amino-3-(3-fluoro-4-morpholinophenyl)-1H-pyrazolo[3,4-d]pyrimidin-1-yl)ethyl)-5-fluoro-3-(4-fluorophenyl)-4H-chromen-4-one]

- inhibition at 0.1 µM [1]: 25 to 50%
- inhibition at 0.1 µM [2]: 25 to 50%
Compound: CNc1ncnc2c1c(-c1ccc(N3CCOCC3)c(F)c1)nn2C(C)c1oc2cccc(F)c2c(=O)c1-c1cccc(F)c1 (stereo not drawn) [Example 99, 5-fluoro-2-(1-(3-(3-fluoro-4-morpholinophenyl)-4-(methylamino)-1H-pyrazolo[3,4-d]pyrimidin-1-yl)ethyl)-3-(3-fluorophenyl)-4H-chromen-4-one]

- inhibition at 0.1 µM [1]: 25 to 50%
- inhibition at 0.1 µM [2]: 0 to 25%
Compound: CC(c1oc2cccc(F)c2c(=O)c1-c1cccc(F)c1)n1cnc2c(N)nc(F)nc21 (stereo not drawn) [Example 106, 2-(1-(6-amino-2-fluoro-9H-purin-9-yl)ethyl)-5-fluoro-3-(3-fluorophenyl)-4H-chromen-4-one]

- inhibition at 0.1 µM [1]: 0 to 25%
- inhibition at 0.1 µM [2]: 25 to 50%
Compound: CC(c1oc2cccc(F)c2c(=O)c1-c1ccc(F)cc1)n1cnc2c(N3CCN(C)CC3)ncnc21 (stereo not drawn) [Example 109, 5-fluoro-3-(4-fluorophenyl)-2-(1-(6-(4-methylpiperazin-1-yl)-9H-purin-9-yl)ethyl)-4H-chromen-4-one]

- inhibition at 1 µM [4]: 0 to 25%
- inhibition at 0.1 µM [1]: 25 to 50%
- inhibition at 0.1 µM [2]: 25 to 50%
Compound: CNc1ncnc2c1ncn2C(C)c1oc2cccc(F)c2c(=O)c1-c1cccc(F)c1 (stereo not drawn) [Example 111, 5-fluoro-3-(3-fluorophenyl)-2-(1-(6-(methylamino)-9H-purin-9-yl)ethyl)-4H-chromen-4-one]

- inhibition at 1 µM ([3]; 1 uM): 50 to 75%
- inhibition at 0.1 µM [1]: 25 to 50%
- inhibition at 0.1 µM [2]: 25 to 50%
Compound: CC(C)Oc1ccc(-c2nn(C(C)c3oc4cccc(F)c4c(=O)c3-c3cccc(F)c3)c3ncnc(N)c23)cc1Cl (stereo not drawn) [Example 117, 2-(1-(4-amino-3-(3-chloro-4-isopropoxyphenyl)-1H-pyrazolo[3,4-d]pyrimidin-1-yl)ethyl)-5-fluoro-3-(3-fluorophenyl)-4H-chromen-4-one]

- inhibition at 0.1 µM [1]: 25 to 50%
- inhibition at 0.1 µM [2]: 0 to 25%
Compound: CC(c1oc2cccc(F)c2c(=O)c1-c1cccc(F)c1)n1cnc2c(N3CCOCC3)ncnc21 (stereo not drawn) [Example 119, 5-fluoro-3-(3-fluorophenyl)-2-(1-(6-morpholino-9H-purin-9-yl)ethyl)-4H-chromen-4-one]

- inhibition at 1 µM [4]: 50 to 75%
- inhibition at 0.1 µM [1]: 50 to 75%
- inhibition at 0.1 µM [2]: 25 to 50%
Compound: CCC(c1oc2cccc(F)c2c(=O)c1-c1cccc(F)c1)n1nc(-c2ccc(OC(C)C)c(F)c2)c2c(N)ncnc21 (stereo not drawn) [Example 133, 2-(1-(4-amino-3-(3-fluoro-4-isopropoxyphenyl)-1H-pyrazolo[3,4-d]pyrimidin-1-yl)propyl)-5-fluoro-3-(3-fluorophenyl)-4H-chromen-4-one]
